{"source": "ChEMBL document CHEMBL1201862", "about": "“PubChem BioAssay data set” (2004)", "key": {"Vero": {"system": "Vero", "test": "host cell cytotoxicity of antiviral hits, dose response, cytotoxicity control for West Nile virus antiviral project, secondary assay (AID 1650)", "assay_type": "functional", "details": "Chlorocebus sabaeus"}, "[1]": {"test": "IOSE-T80 ovarian epithelial cell cytotoxicity, dose response, cytotoxicity control for PAX8 inhibitor project, plate reader, dry powder samples (AID 743045)", "assay_type": "functional, cell-based"}, "[2]": {"test": "inhibitors of PGC1a acetylation in cells, dose response, cell-based, cherry-picked samples (AID 720514);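 further: potency may reflect raised or lowered acetylation signal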", "assay_type": "functional"}, "[3]": {"test": "NIH:OVCAR-3 ovarian cancer cell cytotoxicity, dose response, PAX8 inhibitor project, plate reader, dry powder samples (AID 743044)", "assay_type": "functional, cell-based"}, "[4]": {"test": "IGROV1 ovarian cancer cell cytotoxicity, dose response, PAX8 inhibitor project, plate reader, dry powder samples (AID 743043)", "assay_type": "functional, cell-based", "details": "IGROV-1"}, "[5]": {"target": "T1, 1-phosphatidylinositol 4,5-bisphosphate phosphodiesterase gamma-1 (Homo sapiens, UniProt P19174)", "T1 sequence (P19174 whole entry)": "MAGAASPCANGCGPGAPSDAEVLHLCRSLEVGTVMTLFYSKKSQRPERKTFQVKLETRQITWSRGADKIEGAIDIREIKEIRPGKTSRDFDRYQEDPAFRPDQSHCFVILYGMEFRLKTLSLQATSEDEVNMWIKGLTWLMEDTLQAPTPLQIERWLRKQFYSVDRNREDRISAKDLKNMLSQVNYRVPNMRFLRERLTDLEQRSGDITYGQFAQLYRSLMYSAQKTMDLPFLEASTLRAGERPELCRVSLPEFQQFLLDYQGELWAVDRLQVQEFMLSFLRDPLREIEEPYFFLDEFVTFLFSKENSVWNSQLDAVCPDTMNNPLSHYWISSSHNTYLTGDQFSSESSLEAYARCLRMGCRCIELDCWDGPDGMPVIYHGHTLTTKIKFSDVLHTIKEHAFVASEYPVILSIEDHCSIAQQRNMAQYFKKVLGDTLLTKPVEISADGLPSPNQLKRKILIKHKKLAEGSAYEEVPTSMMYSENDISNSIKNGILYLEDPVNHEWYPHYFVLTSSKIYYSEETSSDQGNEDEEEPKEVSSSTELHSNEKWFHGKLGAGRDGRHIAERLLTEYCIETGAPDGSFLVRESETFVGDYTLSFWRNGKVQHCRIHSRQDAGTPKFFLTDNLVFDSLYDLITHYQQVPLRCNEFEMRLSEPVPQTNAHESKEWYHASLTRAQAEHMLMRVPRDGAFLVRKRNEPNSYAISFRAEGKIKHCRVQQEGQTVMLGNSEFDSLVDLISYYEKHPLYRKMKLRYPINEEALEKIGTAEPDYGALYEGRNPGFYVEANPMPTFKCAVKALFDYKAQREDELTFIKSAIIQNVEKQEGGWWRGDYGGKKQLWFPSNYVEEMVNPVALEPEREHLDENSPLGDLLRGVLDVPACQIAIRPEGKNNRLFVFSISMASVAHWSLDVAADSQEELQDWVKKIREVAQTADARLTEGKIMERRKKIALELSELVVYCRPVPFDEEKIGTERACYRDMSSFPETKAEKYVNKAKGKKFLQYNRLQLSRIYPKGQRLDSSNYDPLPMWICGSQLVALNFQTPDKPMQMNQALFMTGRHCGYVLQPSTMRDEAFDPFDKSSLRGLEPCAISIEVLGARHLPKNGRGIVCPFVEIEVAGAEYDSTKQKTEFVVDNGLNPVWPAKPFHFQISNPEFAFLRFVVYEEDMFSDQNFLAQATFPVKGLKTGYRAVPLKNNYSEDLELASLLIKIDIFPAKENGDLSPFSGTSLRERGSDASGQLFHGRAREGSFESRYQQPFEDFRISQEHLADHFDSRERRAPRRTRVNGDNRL", "test": "Counterscreen for inhibitors of phospholipase C isozymes (PLC-B3): Fluorescence-based biochemical high throughput dose response assay to identify inhibitors of phospholipase C isozymes (PLC-gamma1)."}, "[6]": {"target": "T2, 1-phosphatidylinositol 4,5-bisphosphate phosphodiesterase beta-3 (Homo sapiens, UniProt Q01970)", "T2 sequence (Q01970 whole entry)": "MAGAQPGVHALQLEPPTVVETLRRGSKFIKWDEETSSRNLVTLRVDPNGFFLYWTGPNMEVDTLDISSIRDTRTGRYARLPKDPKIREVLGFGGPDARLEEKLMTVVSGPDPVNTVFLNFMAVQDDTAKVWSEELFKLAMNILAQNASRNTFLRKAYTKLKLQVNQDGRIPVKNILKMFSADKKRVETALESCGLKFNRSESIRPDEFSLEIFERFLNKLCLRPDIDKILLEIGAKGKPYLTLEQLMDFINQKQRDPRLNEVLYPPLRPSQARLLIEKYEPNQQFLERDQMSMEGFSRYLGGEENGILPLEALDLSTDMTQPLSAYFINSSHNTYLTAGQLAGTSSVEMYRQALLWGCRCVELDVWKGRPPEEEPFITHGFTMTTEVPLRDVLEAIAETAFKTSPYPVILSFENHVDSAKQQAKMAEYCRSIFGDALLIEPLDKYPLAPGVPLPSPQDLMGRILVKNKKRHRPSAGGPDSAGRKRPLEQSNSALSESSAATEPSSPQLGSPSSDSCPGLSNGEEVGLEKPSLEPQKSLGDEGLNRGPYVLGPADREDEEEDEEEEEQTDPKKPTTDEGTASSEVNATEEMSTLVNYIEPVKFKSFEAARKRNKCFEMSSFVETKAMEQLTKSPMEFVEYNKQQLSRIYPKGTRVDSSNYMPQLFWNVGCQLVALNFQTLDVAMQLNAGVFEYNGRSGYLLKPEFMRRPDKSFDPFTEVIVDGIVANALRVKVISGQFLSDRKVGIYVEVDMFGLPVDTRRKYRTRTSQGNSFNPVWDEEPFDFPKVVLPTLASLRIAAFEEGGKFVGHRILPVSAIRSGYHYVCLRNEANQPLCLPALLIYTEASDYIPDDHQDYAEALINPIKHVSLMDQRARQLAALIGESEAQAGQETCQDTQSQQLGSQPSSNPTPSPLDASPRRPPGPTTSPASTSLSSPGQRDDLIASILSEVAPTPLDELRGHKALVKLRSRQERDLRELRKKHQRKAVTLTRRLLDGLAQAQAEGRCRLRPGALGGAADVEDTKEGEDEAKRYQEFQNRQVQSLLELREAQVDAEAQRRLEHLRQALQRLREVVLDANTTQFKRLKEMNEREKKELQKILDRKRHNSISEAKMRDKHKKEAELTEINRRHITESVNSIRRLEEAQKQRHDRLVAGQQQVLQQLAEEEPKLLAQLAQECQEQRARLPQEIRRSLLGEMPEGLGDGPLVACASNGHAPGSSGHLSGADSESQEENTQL", "test": "Fluorescence-based biochemical high throughput dose response assay to identify inhibitors of phospholipase C isozymes (PLC-B3)."}, "Aminopeptidase N": {"target": "T3, Aminopeptidase N (Plasmodium falciparum FcB1/Columbia, UniProt O96935)", "T3 sequence (O96935 whole entry)": "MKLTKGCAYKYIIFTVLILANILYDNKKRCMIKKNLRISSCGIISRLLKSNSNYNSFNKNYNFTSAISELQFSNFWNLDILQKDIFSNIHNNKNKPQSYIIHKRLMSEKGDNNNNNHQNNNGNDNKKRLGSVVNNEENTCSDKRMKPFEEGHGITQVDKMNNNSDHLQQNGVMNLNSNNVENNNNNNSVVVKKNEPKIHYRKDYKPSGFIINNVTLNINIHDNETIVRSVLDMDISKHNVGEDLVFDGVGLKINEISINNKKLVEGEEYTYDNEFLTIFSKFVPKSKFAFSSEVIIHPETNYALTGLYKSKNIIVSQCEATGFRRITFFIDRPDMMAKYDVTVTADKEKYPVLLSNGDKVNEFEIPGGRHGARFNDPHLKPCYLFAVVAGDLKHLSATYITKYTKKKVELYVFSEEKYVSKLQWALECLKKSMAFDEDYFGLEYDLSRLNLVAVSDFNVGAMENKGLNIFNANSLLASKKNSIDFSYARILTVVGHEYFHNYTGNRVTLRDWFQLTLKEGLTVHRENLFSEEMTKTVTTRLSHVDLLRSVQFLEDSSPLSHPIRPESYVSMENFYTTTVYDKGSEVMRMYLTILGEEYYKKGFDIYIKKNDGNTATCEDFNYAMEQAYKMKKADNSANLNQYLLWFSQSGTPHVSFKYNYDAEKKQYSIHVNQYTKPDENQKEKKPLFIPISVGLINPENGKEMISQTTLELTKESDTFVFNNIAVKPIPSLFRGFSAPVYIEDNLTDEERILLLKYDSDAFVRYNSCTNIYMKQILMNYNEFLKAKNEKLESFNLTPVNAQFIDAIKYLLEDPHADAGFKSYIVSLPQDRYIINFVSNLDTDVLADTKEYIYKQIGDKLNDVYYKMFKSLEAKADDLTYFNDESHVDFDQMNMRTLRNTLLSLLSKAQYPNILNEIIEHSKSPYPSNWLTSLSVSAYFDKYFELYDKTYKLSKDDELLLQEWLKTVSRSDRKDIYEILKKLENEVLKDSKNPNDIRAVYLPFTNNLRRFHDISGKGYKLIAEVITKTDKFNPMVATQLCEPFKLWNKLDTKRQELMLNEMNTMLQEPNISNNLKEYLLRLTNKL", "test": "P. falciparum M1AAP inhibitors, biochemical, fluorogenic H-Leu-NHMec substrate, 1536-well (AID 1445)", "design": "species or system Plasmodium falciparum 3D7, 3D7"}, "Caspase-6": {"target": "T4, Caspase-6 (Homo sapiens, UniProt P55212)", "T4 sequence (P55212 whole entry)": "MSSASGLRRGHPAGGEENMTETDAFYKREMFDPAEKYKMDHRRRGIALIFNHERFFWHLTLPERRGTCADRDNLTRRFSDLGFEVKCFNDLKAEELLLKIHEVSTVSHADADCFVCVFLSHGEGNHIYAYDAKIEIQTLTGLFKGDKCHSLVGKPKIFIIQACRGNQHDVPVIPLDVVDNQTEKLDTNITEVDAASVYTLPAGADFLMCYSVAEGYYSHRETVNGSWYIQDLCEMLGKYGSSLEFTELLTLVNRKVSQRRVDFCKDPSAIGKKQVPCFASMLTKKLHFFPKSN", "test": "human caspase-6 inhibitors, dose response, biochemical, VEID-R110 fluorescence, cherry-pick (AID 720632)"}, "[7]": {"test": "THP-1 cell cytotoxicity, dose response, cytotoxicity control for Vif-APOBEC3G degradation inhibitor project, THP-1 cells (AID 1117359)", "assay_type": "functional", "details": "Human immunodeficiency virus 1, THP-1"}}, "note": "The source made the active and inactive calls.", "data": [{"smiles": "CC12CC[C@H]3[C@@H](CCC4(O)C[C@H](O)CCC34/C=N/NC(=O)c3ccccc3O)C1(O)CCC2C1=CC(=O)OC1", "note": "(stereo not given in full)", "values": [{"measurement": "CC50", "setting": "Vero", "result": "22.2 µM (active)"}]}, {"smiles": "COc1cccc(-c2ccc([C@@H]3[C@@H]4CN(Cc5cccc(F)c5)C[C@H]3N4)cc2)c1", "values": [{"measurement": "AC50", "setting": "[1]", "result": "36 µM (active)"}, {"measurement": "AC50", "setting": "[2]", "result": "4.26 µM (active)"}, {"measurement": "AC50", "setting": "[3]", "result": "24.4 µM (active)"}, {"measurement": "AC50", "setting": "[4]", "result": "34 µM (active)"}]}, {"smiles": "O=S(=O)(CS(=O)(=O)c1ccccc1Br)c1ccccc1Br", "values": [{"measurement": "IC50", "setting": "[5]", "result": "44.7 µM (inactive)"}, {"measurement": "IC50", "setting": "[6]", "result": "> 122 µM (inactive)"}]}, {"smiles": "COc1ccc(/C=C2\\SC(=S)NC2=O)cc1OS(=O)(=O)c1ccc(NC(C)=O)cc1", "values": [{"measurement": "IC50", "setting": "Aminopeptidase N", "result": "29.8 µM (active)"}, {"measurement": "AC50", "setting": "Caspase-6", "result": "17 µM (active)"}]}, {"smiles": "CCNS(=O)(=O)c1ccc(-c2ccc(-n3cnnn3)cc2)cc1", "values": [{"measurement": "CC50", "setting": "[7]", "result": "> 40 µM (active)"}]}]}
